Values joined by “and” are separate entries in the source; they are usually repeats but may differ in a detail not shown here. Equal values may be shown once. “Also recorded” adds a separate entry of the source. Read-outs that look alike come from different tables or passages of the source. Marks after values point to notes of the source that are not given here.
How the values were obtained:
[1] = tested on: Clostridium perfringens pathogen (CPP) without and with Aflatoxin; set-up: species or system Cobb 500 chicks; conditions: in vivo
E. maxima = tested on: E. maxima; set-up: species or system chickens; conditions: in vivo
[2] = tested on: Clostridium perfringens pathogen (CPP); format: in vivo, Cobb 500 chicks; conditions: CPP Challenge
[3] = tested on: Clostridium perfringens (CPP) and aflatoxin; set-up: species or system Cobb 500 chicks; conditions: in vivo
[4] = set-up: species or system Cobb 500 chicks; conditions: in vivo
[5] = tested on: Clostridium perfringens (CP); format: in vivo, chickens
[6] = tested on: Clostridium perfringens pathogen (CPP) + 1 ppm aflatoxin B1; set-up: species or system Cobb 500 chicks; conditions: in vivo
α-toxin antigen = conditions: in vivo
[7] = tested on: IL8, LITAF, IL-6, iNOS, TNFSF15 expression; set-up: species or system broiler chickens (Ross/Ross); conditions: in vivo
Clostridium perfringens = format: in vivo, broiler chicken (Cobb X Cobb); conditions: infect
NetB toxin antigen = conditions: in vivo
[8] = tested on: IL8, LITAF, TNFSF15, IL-6, iNOS, IL-1β expression; set-up: species or system broiler chickens (Ross/Ross); conditions: in vivo

For virginiamycin [VM], the “Daily Feed Intake, g 0-10 d” value [1] was 21.2^a g, the “Daily Feed Intake, g 0-24 d” value [1] was 47.6^ab g and the “Daily Feed Intake, g 10-24 d” value [1] was 68.2^b g. The “FCR (F:G) 0-10 d” value [1] was 1.24^c, the “FCR (F:G) 0-24 d” value [1] was 1.35^b and the “FCR (F:G) 10-24 d” value [1] was 1.39^b. The “Gain, g 0-10 d” value [1] was 173^a g, the “Gain, g 0-24 d” value [1] was 917^a g and the “Gain, g 10-24 d” value [1] was 744^a g. The “Lesion Score at d-20” value [1] was 0.767, the “Mortality, % 0-10 d” value [1] was 0.42^c % and the “Mortality, % 10-24 d” value [1] was 0.63%. For the same substance, the “Feed Conversion Day 0-21” value (E. maxima) was 1.676 ^ef, the “Feed Conversion Day 0-28” value (E. maxima) was 1.604 ^e and the “Feed Conversion Day 14-21” value (E. maxima) was 1.550 ^d. The “Feed Conversion Day 14-28” value (E. maxima) was 1.480 ^d, the “Lesion Score” value (E. maxima) was 0.0^d and the “Necrotic Enteritis Mortality, %” value (E. maxima) was 0.0^c %. The “Weight Gain Day 0-21” value (E. maxima) was 0.569 ^ab, the “Weight Gain Day 0-28” value (E. maxima) was 0.845 ^a and the “Weight Gain Day 14-21” value (E. maxima) was 0.325 ^a. For the same substance, the “Weight Gain Day 14-28” value (E. maxima) was 0.601 ^a, the “Feed Conversion Ratio Day 0-10” value [2] was 1.22^b and the “Feed Conversion Ratio Day 0-24” value [2] was 1.33^f. The “Feed Conversion Ratio Day 10-24” value [2] was 1.36^e, the “Feed intake, g Day 0-10” value [2] was 20.9^cde g and the “Feed intake, g Day 0-24” value [2] was 50.5^a g. For the same substance, the “Feed intake, g Day 10-24” value [2] was 73.6^a g, the “Gain, g Day 0-10” value [2] was 174^ab g and the “Gain, g Day 0-24” value [2] was 980^a g. For the same substance, the “Gain, g Day 10-24” value [2] was 806^a g, the “Lesions Day 20” value [2] was 1.025^a and the “Mortality, % Day 0-10” value [2] was 0.63^ef %. The “Mortality, % Day 10-24” value [2] was 0.63^bc %, the “Gain, g Day 10-24” value ([2]; listed as virginiamycin) was “improved gain compared to the diet with no product” and the feed conversion [3] was “improved; also recorded: greatest improvement at 1.5 ppm”. For the same substance, the feed intake [3] was “improved”, the gain [3] was “improved; also recorded: higher gain that those birds not fed VM; also recorded: helps improve gain; also recorded: not at 1.5 ppm AFL” and the lesion scores [3] was “increased”. The mortality [3] was “decreased”, the “Feed Conversion Ratio Day 0-10” value [4] was 1.28^b and the “Feed Conversion Ratio Day 0-24” value [4] was 1.34^ef. The “Feed intake, g Day 0-10” value [4] was 22.6^ab g, the “Feed intake, g Day 10-24” value [4] was 72.2^abc g and 72.2^abe g and the “Gain, g Day 0-10” value [4] was 180^a g. The “Gain, g Day 0-24” value [4] was 983^a g, the “Gain, g Day 10-24” value [4] was 804^a g and the “Mortality, % Day 0-10” value [4] was 0^f %. The “Mortality, % Day 10-24” value [4] was 0.63^bc %, the performance [4] was “improved performance” and the “Feed Conversion Day 0-21” value ([5]; CP) was 1.746 ^bcdef. The “Feed Conversion Day 0-28” value ([5]; CP) was 1.706 ^bcd, the “Feed Conversion Day 14-21” value ([5]; CP) was 1.566 ^d and the “Feed Conversion Day 14-28” value ([5]; CP) was 1.563 ^bcd. For the same substance, the “Weight Gain Day 0-21” value ([5]; CP) was 0.511 ^bcd, the “Weight Gain Day 0-28” value ([5]; CP) was 0.742 ^b and the “Weight Gain Day 14-21” value ([5]; CP) was 0.295 ^bcd. For the same substance, the “Weight Gain Day 14-28” value ([5]; CP) was 0.526 ^bcd, the “Lesion Score” value ([5]; CP, 0 to 3 score) was 0.2^cd and the “Necrotic Enteritis Mortality, %” value ([5]; CP, listed as Virginiamycin) was 6.3^bc %. For the same substance, the “Necrotic Enteritis Mortality, %” value ([5]; CP, listed as virginiamycin) was “significantly better than no product”, the “Rank (lesion score, necrotic enteritis mortality, d 14-28 weight gain and feed conversion ratio)” value ([5]; Table A, birds with a Clostridium perfringens challenge) was 1 and the “reduction of disease, in words” value ([5]; in vivo) was “numerically the best”. For the same substance, the “Feed Conversion Ratio Day 0-24” value [6] was 1.38^abcd, the “Feed Conversion Ratio Day 10-24” value [6] was 1.43^ab and the “Feed intake, g Day 0-10” value [6] was 20.0^efg. The “Feed intake, g Day 0-24” value [6] was 41.7^f g, the “Feed intake, g Day 10-24” value [6] was 58.7^g and the “Gain, g Day 0-10” value [6] was 166^cd g. For the same substance, the “Gain, g Day 0-24” value [6] was 788^f g, the “Gain, g Day 10-24” value [6] was 622^f g and the “Lesions Day 20” value [6] was 1.150^a. The “Mortality, % Day 0-10” value [6] was 0.63^ef %, the “Mortality, % Day 10-24” value [6] was 0.63^bc % and the gain [6] was “higher gains than adding NP”. The “antibodies to α-toxin (optical density)” value (α-toxin antigen) was “notable increases”, the “serum antibody levels against α-toxin” value (α-toxin antigen) was “significantly higher” and the IL8 expression [7] was “decreased”. For the same substance, the IL-6 expression [7] was “generally decreased”, the LITAF expression [7] was “decreased” and the iNOS expression [7] was “generally decreased”. For the same substance, the “% NE Mortality” value (Clostridium perfringens) was 1.6 bc %, the “Feed Consumption D0-21” value (Clostridium perfringens) was 4.733 b and the “Feed Consumption D0-28” value (Clostridium perfringens) was 6.313 b. The “Feed Consumption D14-21” value (Clostridium perfringens) was 2.312 c, the “Feed Consumption D14-28” value (Clostridium perfringens) was 2.891 bc and the “Feed Conversion D0-21” value (Clostridium perfringens) was 1.947 bc. The “Feed Conversion D0-28” value (Clostridium perfringens) was 1.929 bc, the “Feed Conversion D14-21” value (Clostridium perfringens) was 1.752 c and the “Feed Conversion D14-28” value (Clostridium perfringens) was 1.797 c. The “Weight Gain D0-21” value (Clostridium perfringens) was 0.316 b, the “Weight Gain D14-21” value (Clostridium perfringens) was 0.171 a and the “Weight Gain D14-28” value (Clostridium perfringens) was 0.367 b. The “NE (0-3) Lesion Score” value (Clostridium perfringens; DOT 21) was 0.5 ab, the “serum antibody levels against the NetB toxin antigen” value (NetB toxin antigen) was “higher” and the “serum antibody response against NetB toxin antigen” value (NetB toxin antigen) was “increased”. For the same substance, the TNFSF15 expression [8] was “decreased” and the iNOS expression [8] was “decreased”.
